How the values were obtained:
[1] = tested on: Ewing sarcoma cell lines, TP53 WT and mutant; experiment: Cell proliferation (CellTiter-Glo), panel of Ewing sarcoma cell lines; type: cell-based; settings: same set of cell lines
Method: Cells were plated in 384-well culture-treated plates and allowed to settle overnight. After drug treatment and appropriate incubation time, cell viability was assessed using the CellTiter-Glo Luminescent Cell Viability Assay (Promega). Luminescence was read on a Fluostar Omega Reader (BMG Labtech).

[2] = tested on: Ewing sarcoma cell lines, TP53 WT and mutant; settings: recently reported study; cited from earlier work
full length USP7 = full length USP7 (Homo sapiens (Human), UniProt Q93009); experiment: Ub-AMC kinetic assay (ki and kinact); type: biochemical; settings: pre-incubation 5 min-3 hours; read-out: inhibition constant (Ki)
Chain of full length USP7 (Q93009 whole entry): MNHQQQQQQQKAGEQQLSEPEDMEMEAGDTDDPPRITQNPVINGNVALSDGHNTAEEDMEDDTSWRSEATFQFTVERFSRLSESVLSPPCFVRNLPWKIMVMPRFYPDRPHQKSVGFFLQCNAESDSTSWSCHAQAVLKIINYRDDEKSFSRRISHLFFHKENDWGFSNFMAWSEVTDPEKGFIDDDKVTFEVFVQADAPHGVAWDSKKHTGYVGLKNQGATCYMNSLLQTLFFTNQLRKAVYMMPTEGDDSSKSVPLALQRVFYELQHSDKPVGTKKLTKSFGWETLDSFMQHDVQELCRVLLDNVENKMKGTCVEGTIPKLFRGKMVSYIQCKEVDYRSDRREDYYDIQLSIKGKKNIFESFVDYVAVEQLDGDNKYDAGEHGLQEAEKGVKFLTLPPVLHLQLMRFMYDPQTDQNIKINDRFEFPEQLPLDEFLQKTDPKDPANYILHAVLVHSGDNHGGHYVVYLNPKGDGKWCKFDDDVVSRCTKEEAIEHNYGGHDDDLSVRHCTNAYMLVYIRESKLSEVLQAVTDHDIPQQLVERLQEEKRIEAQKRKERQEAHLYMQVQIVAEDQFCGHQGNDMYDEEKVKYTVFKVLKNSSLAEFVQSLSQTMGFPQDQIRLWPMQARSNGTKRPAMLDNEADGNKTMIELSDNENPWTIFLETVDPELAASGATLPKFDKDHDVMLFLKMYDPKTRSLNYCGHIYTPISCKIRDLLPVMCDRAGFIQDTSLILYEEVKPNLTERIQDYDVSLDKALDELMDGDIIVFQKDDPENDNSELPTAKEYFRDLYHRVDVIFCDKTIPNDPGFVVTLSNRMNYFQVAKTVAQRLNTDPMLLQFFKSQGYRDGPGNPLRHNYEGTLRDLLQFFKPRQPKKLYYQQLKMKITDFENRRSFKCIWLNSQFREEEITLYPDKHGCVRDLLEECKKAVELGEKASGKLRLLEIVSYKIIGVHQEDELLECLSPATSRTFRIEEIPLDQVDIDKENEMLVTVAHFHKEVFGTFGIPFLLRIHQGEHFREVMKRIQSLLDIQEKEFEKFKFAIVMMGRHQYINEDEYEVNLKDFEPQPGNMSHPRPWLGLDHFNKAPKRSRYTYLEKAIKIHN
Method: Full length USP7 was tested for its activity in Ubiquitin-AMC assay in presence or absence of inhibitors. USP7 (5 nM) was pre-incubated for 6 hours at room temperature with different concentrations of inhibitors or DMSO as a control in 50 mM HEPES pH 7.5, 0.5 mM EDTA, 11 μM ovalbumin, and 5 mM DTT. Ubiquitin-AMC (Boston Biochem) was then added to a final concentration of 500 nM. The initial rate of the reaction was measured by collecting fluorescence data at one minute intervals over 30-minute period using a Clariostar fluorescence plate reader at excitation and emission wavelength of 345 and 445 nm respectively. The calculated initial rate values were plotted against inhibitor concentrations to determine IC50s. All the experimental data were plotted using Prism GraphPad. All assays for each compound were performed at least twice for each compound.
To determine kobs, the time course curves were fit to the equation y=ymax(1−exp(−kobs·x)). The kobs values were then plotted against the inhibitor concentrations and fit to the equation y=kinact/(1+(ki/x)) to obtain the values for ki and kinact.

| SMILES | specificity for TP53-WT expressing cells [1] | activity against WT and TP53-KO Ewing Sarcoma cells [2] | Ki (full length USP7) [nM] |
| --- | --- | --- | --- |
| CC(=O)c1cc([N+](=O)[O-])c(Sc2cccc(Cl)c2Cl)s1 [P5091] | little to no specificity for TP53-WT expressing cells | equipotent activity against WT and TP53-KO Ewing Sarcoma cells |  |
| CN1CCN(CCC(=O)Nc2ccc3c(=O)n(CC4(O)CCN(C(=O)CCCCNC(=O)c5ccc6c(Cl)c7c(nc6c5)CCCC7)CC4)cnc3c2)CC1 [compound 1, 9-chloro-N-(5-(4-hydroxy-4-((7-(3-(4-methylpiperazin-1-yl)propanamido)-4-oxoquinazolin-3(4H)-yl)methyl)piperidin-1-yl)-5-oxopentyl)-5,6,7,8-tetrahydroacridine-3-carboxamide] |  |  | 2.8 ± 1.8 |

Source: patent US12503453B2, “USP7 inhibition” (Dana-Farber Cancer Institute, Inc., priority 2018, dated 2025)
